Patent publication US20240148723A1, “MYCOBACTERIUM TUBERCULOSIS COMPOSITIONS AND METHODS” (priority 2021, published 2024)
Values after ≈ are worked out from the molar mass of the structure shown.

Test system: M. tuberculosis
Type: cell-based, Mycobacterium tuberculosis
Conditions: pH 6.8

SMILES | MIC in the media 7H9 | MIC in the media L-Ala | MIC in the media SBA | MIC in the media SLac
Cc1c(Cl)ccc2c(C(=O)O)cc(-c3ccccc3)nc12 [compound 40306] | ≥ 29.77 µg/mL | 7.44 µg/mL (≈ 25 µM) | 7.44 µg/mL (≈ 25 µM) | 3.72 µg/mL (≈ 12.5 µM)
CCOC(=O)c1ccc(N)cc1 [compound 41531] | ≥ 800 µg/mL | 0.26 µg/mL (≈ 1.57 µM) | 0.26 µg/mL (≈ 1.57 µM) | 0.26 µg/mL (≈ 1.57 µM)
Nc1cc(Nc2ccc(Br)cc2)nc(N)n1 [compound 42135] | ≥ 28.01 µg/mL | 7.00 µg/mL (≈ 25 µM) | 14.01 µg/mL (≈ 50 µM) | 3.50 µg/mL (≈ 12.5 µM)
O=C1C[C@@H](c2ccccc2)Oc2cc(O)cc(O)c21 [compound 43318] | ≥ 101.70 µg/mL | 6.36 µg/mL (≈ 24.8 µM) | 6.36 µg/mL (≈ 24.8 µM) | 0.41 µg/mL (≈ 1.6 µM)
O=C1C(O)=C(c2ccccc2)C(=O)C(O)=C1c1ccccc1 [compound 44175] | ≥ 29.23 µg/mL | 7.31 µg/mL (≈ 25 µM) | 3.65 µg/mL (≈ 12.5 µM) | 3.65 µg/mL (≈ 12.5 µM)
CN(CC(=O)O)Cc1c(O)c(Cl)cc(Cl)c1Cl [compound 45114] | ≥ 119.40 µg/mL | 29.85 µg/mL (≈ 100 µM) | 14.93 µg/mL (≈ 50 µM) | 3.73 µg/mL (≈ 12.5 µM)
C=C1C(=O)OC2CC1C(OC(C)=O)C/C(C)=C/CC/C(C)=C\CCC2(C)O (stereo not shown) [compound 46728] | ≥ 75.30 µg/mL | 37.65 µg/mL (≈ 100 µM) | 9.41 µg/mL (≈ 25 µM) | 4.71 µg/mL (≈ 12.5 µM)
c1ccc(Sc2ncnc3ccccc23)cc1 [compound 51331] | ≥ 23.83 µg/mL | 11.92 µg/mL (≈ 50 µM) | 11.92 µg/mL (≈ 50 µM) | 2.98 µg/mL (≈ 12.5 µM)
Oc1ccc(Cl)cc1Sc1cc(Cl)ccc1O [compound 55636] | ≥ 114.88 µg/mL | 1.80 µg/mL (≈ 6.27 µM) | 0.92 µg/mL (≈ 3.2 µM) | 0.92 µg/mL (≈ 3.2 µM)
COC12C(COC(N)=O)C3=C(C(=O)C(C)=C(N)C3=O)N1CC1C2N1C (stereo not shown) [compound 56410] | ≥ 0.28 µg/mL | 0.28 µg/mL (≈ 0.804 µM) | 0.28 µg/mL (≈ 0.804 µM) | 0.56 µg/mL (≈ 1.61 µM)
COc1ccc(C(=O)c2ccccc2O)c(O)c1 [compound 56769] | ≥ 97.70 µg/mL | 24.42 µg/mL (≈ 100 µM) | 24.42 µg/mL (≈ 100 µM) | 0.76 µg/mL (≈ 3.11 µM)
O=[N+]([O-])c1cc([N+](=O)[O-])c2cccnc2c1O [compound 57103] | ≥ 23.52 µg/mL | 0.75 µg/mL (≈ 3.19 µM) | 0.75 µg/mL (≈ 3.19 µM) | 0.75 µg/mL (≈ 3.19 µM)
COc1ccc(C2CC(=O)c3c(O)cc(O)cc3O2)cc1O (stereo not shown) [compound 57654] | ≥ 120.91 µg/mL | 7.56 µg/mL (≈ 25 µM) | 7.56 µg/mL (≈ 25 µM) | 1.89 µg/mL (≈ 6.25 µM)
O=c1[nH]c(=S)[nH]cc1Oc1ccc(Cl)cc1Cl [compound 73753] | ≥ 115.66 µg/mL | 14.46 µg/mL (≈ 50 µM) | 14.46 µg/mL (≈ 50 µM) | 1.81 µg/mL (≈ 6.26 µM)
CC[C@@H](O)C[C@H]1CCC[C@@]2(C[C@@H]3OC(=O)/C=C/[C@@](C)(O)[C@@H](O)[C@H](C)[C@@H](O)[C@H](OC4CCC(N(C)C)C(C)O4)[C@@H](O)[C@](C)(O)CCCCC/C=C/[C@@H]4CC(C)(C)O[C@@]4(O)C[C@H](O2)[C@H]3C)O1 (stereo partly shown) [compound 76627] | ≥ 22.81 µg/mL | 5.7 µg/mL (≈ 6.25 µM) | 11.4 µg/mL (≈ 12.5 µM) | 5.7 µg/mL (≈ 6.25 µM)
CCOC(CNCc1cc(C)c2[nH]c3ccccc3c2c1C)OCC [compound 79486] | ≥ 17.03 µg/mL | 8.51 µg/mL (≈ 25 µM) | 8.51 µg/mL (≈ 25 µM) | 2.13 µg/mL (≈ 6.26 µM)
Cc1ccc(NC(c2ccccc2)c2ccc3cccnc3c2O)cc1 (stereo not shown) [compound 84093] | ≥ 136.16 µg/mL | 17.02 µg/mL (≈ 50 µM) | 2.13 µg/mL (≈ 6.26 µM) | 2.13 µg/mL (≈ 6.26 µM)

SMILES | MIC in the media 7H9 | MIC in the media L-Ala | MIC in the media SBA | MIC in the media SLac
CCCCc1oc2ccccc2c1C(=O)c1cc(I)c(OCCN(CC)CC)c(I)c1.Cl [compound 85442] | ≥ 8.52 µg/mL | 4.26 µg/mL | 2.18 µg/mL | 1.09 µg/mL
OC(COc1ccc(Cl)cc1)CN1CCN(c2cccc(Cl)c2)CC1 (stereo not shown) [compound 91340] | ≥ 38.13 µg/mL | 4.77 µg/mL (≈ 12.5 µM) | 9.53 µg/mL (≈ 25 µM) | 4.77 µg/mL (≈ 12.5 µM)
Sc1nc2cc(-c3ccccc3)ccc2o1 [compound 93817] | ≥ 22.73 µg/mL | 1.42 µg/mL (≈ 6.25 µM) | 0.73 µg/mL (≈ 3.21 µM) | 0.73 µg/mL (≈ 3.21 µM)
Nc1ccc(N=Nc2ccc(O)cc2)c(N)n1 [compound 108235] | ≥ 22.92 µg/mL | 11.46 µg/mL (≈ 50 µM) | 11.46 µg/mL (≈ 50 µM) | 5.73 µg/mL (≈ 25 µM)
CCC(C)c1occ2c(O)c(C(=O)O)c(=O)cc-2c1C (stereo not shown) [compound 114344] | ≥ 110.51 µg/mL | 27.63 µg/mL (≈ 100 µM) | 6.91 µg/mL (≈ 25 µM) | 1.73 µg/mL (≈ 6.26 µM)
C1C2CC3C1C3/C2=N\N=C1/C2CC3C(C2)C13 [compound 122987] | ≥ 88.52 µg/mL | 1.38 µg/mL (≈ 6.5 µM) | 11.06 µg/mL (≈ 52.1 µM) | 5.53 µg/mL (≈ 26 µM)
COc1ccc(-c2coc3cc(O)cc(O)c3c2=O)cc1 [compound 123538] | ≥ 113.70 µg/mL | 7.11 µg/mL (≈ 25 µM) | 7.11 µg/mL (≈ 25 µM) | 0.45 µg/mL (≈ 1.58 µM)
NN=C1C(Cl)=C(Cl)C(Cl)=C1Cl [compound 126405] | ≥ 23.19 µg/mL | 5.80 µg/mL (≈ 25 µM) | 5.80 µg/mL (≈ 25 µM) | 5.80 µg/mL (≈ 25 µM)
Cc1ccc2ccc(C#N)cc2c1O [compound 128068] | ≥ 18.32 µg/mL | 9.16 µg/mL (≈ 50 µM) | 9.16 µg/mL (≈ 50 µM) | 2.29 µg/mL (≈ 12.5 µM)
CCCCOC(=O)c1ccc(N)cc1 [compound 128464] | ≥ 800 µg/mL | 0.06 µg/mL (≈ 0.31 µM) | 0.06 µg/mL (≈ 0.31 µM) | 0.06 µg/mL (≈ 0.31 µM)
COC1C=COC2(C)Oc3c(C)c(O)c4c(O)c(cc(O)c4c3C2=O)NC(=O)C(C)=CC=CC(C)C(O)C(C)C(O)C(C)C(OC(C)=O)C1C (stereo not shown) [compound 133100] | ≥ 0.56 µg/mL | 0.56 µg/mL (≈ 0.803 µM) | 0.56 µg/mL (≈ 0.803 µM) | 0.56 µg/mL (≈ 0.803 µM)
CSc1nc(=O)[nH]nc1Sc1ccccc1 [compound 134058] | ≥ 25.13 µg/mL | 6.28 µg/mL (≈ 25 µM) | 3.14 µg/mL (≈ 12.5 µM) | 3.14 µg/mL (≈ 12.5 µM)
Cc1ccc(C)c(N2CCN(c3ccncc3N)CC2)c1 [compound 147866] | ≥ 14.12 µg/mL | 14.12 µg/mL (≈ 50 µM) | 7.06 µg/mL (≈ 25 µM) | 1.77 µg/mL (≈ 6.27 µM)
CC1(C)CCSC(C=Cc2ccccc2)=N1 [compound 150954] | ≥ 11.57 µg/mL | 5.78 µg/mL (≈ 25 µM) | 2.89 µg/mL (≈ 12.5 µM) | 2.89 µg/mL (≈ 12.5 µM)
O=[N+]([O-])/C=C/c1cc2ccccc2[nH]1 [compound 150982] | ≥ 18.82 µg/mL | 9.41 µg/mL (≈ 50 µM) | 4.70 µg/mL (≈ 25 µM) | 2.35 µg/mL (≈ 12.5 µM)
CCOc1ccc(N=Nc2ccc(N)cc2N)cc1 [compound 190374] | ≥ 6.41 µg/mL | 3.20 µg/mL (≈ 12.5 µM) | 6.41 µg/mL (≈ 25 µM) | 3.20 µg/mL (≈ 12.5 µM)
Cc1ccc([S+]([O-])c2ccc([N+](=O)[O-])c3nonc23)cc1 (stereo not shown) [compound 228150] | ≥ 30.33 µg/mL | 7.58 µg/mL (≈ 25 µM) | 3.79 µg/mL (≈ 12.5 µM) | 3.79 µg/mL (≈ 12.5 µM)
